According to ChEMBL document CHEMBL4622865, “Sulfonamide-based 4-anilinoquinoline derivatives as novel dual Aurora kinase (AURKA/B) inhibitors: Synthesis, biological evaluation and in silico insights” (Bioorg Med Chem, 2020):

What was measured:
Aurora kinase B [1] = molecular target: T1, Aurora kinase B (Homo sapiens, UniProt Q96GD4); assay: Inhibition of human Aurora B using [H-LRRASLG] as substrate at 20 uM in presence of [gamma-33P]-ATP incubated for 2 hrs by hotspot kinase assay relative to control
[2] = molecular target: T2, Aurora kinase A (Homo sapiens) (UniProt O14965); assay: Inhibition of human Aurora A using [H-LRRASLG] as substrate at 20 uM in presence of [gamma-33P]-ATP incubated for 2 hrs by hotspot kinase assay relative to control
T2 sequence (whole entry): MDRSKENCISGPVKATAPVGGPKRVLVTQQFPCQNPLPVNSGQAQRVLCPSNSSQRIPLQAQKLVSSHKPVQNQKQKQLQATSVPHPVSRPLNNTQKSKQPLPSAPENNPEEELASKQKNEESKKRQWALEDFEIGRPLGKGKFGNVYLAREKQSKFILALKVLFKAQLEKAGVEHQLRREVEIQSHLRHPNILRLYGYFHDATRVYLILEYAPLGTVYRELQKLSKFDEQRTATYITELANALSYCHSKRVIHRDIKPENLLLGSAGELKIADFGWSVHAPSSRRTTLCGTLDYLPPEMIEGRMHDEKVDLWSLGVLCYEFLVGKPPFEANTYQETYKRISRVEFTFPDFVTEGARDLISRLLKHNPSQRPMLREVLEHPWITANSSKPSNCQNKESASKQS

Aurora kinase A = molecular target: T3, Aurora kinase A (Homo sapiens, UniProt O14965); assay: Inhibition of human Aurora A using [H-LRRASLG] as substrate in presence of [gamma-33P]-ATP incubated for 2 hrs by hotspot kinase assay
T3 sequence (O14965 whole entry): T2 sequence (whole entry)

UO-31 = assay: Antitumor activity against human UO31 cells assessed as growth inhibition at 10-'5 M incubated for 48 hrs by SRB assay relative to control; format: functional
A498 = assay: Antitumor activity against human A498 cells assessed as growth inhibition at 10-'5 M incubated for 48 hrs by SRB assay relative to control; format: functional
Aurora kinase B [3] = molecular target: T1, Aurora kinase B; assay: Inhibition of human Aurora B using [H-LRRASLG] as substrate in presence of [gamma-33P]-ATP incubated for 2 hrs by hotspot kinase assay
CAKI-1 = assay: Antitumor activity against human CAKI-1 cells assessed as growth inhibition at 10-'5 M incubated for 48 hrs by SRB assay relative to control; format: functional
SNB-75 = assay: Antitumor activity against human SNB75 cells assessed as growth inhibition at 10-'5 M incubated for 48 hrs by SRB assay relative to control; format: functional
NCI/ADR-RES = assay: Antitumor activity against human NCI-ADR-RES cells assessed as growth inhibition at 10-'5 M incubated for 48 hrs by SRB assay relative to control; format: functional
HCT-15 = assay: Antitumor activity against human HCT15 cells assessed as growth inhibition at 10-'5 M incubated for 48 hrs by SRB assay relative to control; format: functional
NCI-H522 = assay: Antitumor activity against human NCI-H522 cells assessed as growth inhibition at 10-'5 M incubated for 48 hrs by SRB assay relative to control; format: functional
[4] = molecular target: Serine/threonine-protein kinase VRK2 (Homo sapiens) (UniProt Q86Y07); assay: Inhibition of human VRK2 using casein as substrate at 20 uM in presence of [gamma-33P]-ATP incubated for 2 hrs by hotspot kinase assay relative to control
HCT-116 = assay: Antitumor activity against human HCT116 cells assessed as growth inhibition at 10-'5 M incubated for 48 hrs by SRB assay relative to control; format: functional
[5] = molecular target: Calcium/calmodulin-dependent protein kinase kinase 2 (Homo sapiens) (UniProt Q96RR4); assay: Inhibition of human CAMKK2 using MBP as substrate at 20 uM in presence of [gamma-33P]-ATP incubated for 2 hrs by hotspot kinase assay relative to control
[6] = molecular target: Dual specificity testis-specific protein kinase 1 (Homo sapiens) (UniProt Q15569); assay: Inhibition of human TESK1 using cofilin as substrate at 20 uM in presence of [gamma-33P]-ATP incubated for 2 hrs by hotspot kinase assay relative to control
[7] = molecular target: Proto-oncogene tyrosine-protein kinase ROS (Homo sapiens) (UniProt P08922); assay: Inhibition of human ROS/ROS1 using KKKSPGEYVNIEFG as substrate at 20 uM in presence of [gamma-33P]-ATP incubated for 2 hrs by hotspot kinase assay relative to control
786-0 = assay: Antitumor activity against human 786-O cells assessed as growth inhibition at 10-'5 M incubated for 48 hrs by SRB assay relative to control; format: functional
M14 = assay: Antitumor activity against human M14 cells assessed as growth inhibition at 10-'5 M incubated for 48 hrs by SRB assay relative to control; format: functional
[8] = molecular target: MAP kinase-activated protein kinase 3 (Homo sapiens) (UniProt Q16644); assay: Inhibition of human MAPKAPK3 using KKLNRTLSVA as substrate at 20 uM in presence of [gamma-33P]-ATP incubated for 2 hrs by hotspot kinase assay relative to control
MAP kinase-activated protein kinase 3 (Homo sapiens), sequence (Q16644 whole entry, looked up): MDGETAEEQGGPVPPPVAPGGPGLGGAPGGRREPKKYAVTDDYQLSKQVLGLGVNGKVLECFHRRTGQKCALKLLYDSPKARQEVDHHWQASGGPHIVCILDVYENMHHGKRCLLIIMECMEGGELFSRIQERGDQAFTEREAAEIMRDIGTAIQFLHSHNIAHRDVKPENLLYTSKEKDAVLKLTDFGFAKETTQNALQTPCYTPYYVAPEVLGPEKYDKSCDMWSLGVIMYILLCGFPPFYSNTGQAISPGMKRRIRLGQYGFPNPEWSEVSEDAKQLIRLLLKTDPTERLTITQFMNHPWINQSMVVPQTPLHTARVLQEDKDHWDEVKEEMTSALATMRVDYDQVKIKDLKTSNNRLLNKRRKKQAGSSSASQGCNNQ

T1 sequence (Q96GD4 whole entry): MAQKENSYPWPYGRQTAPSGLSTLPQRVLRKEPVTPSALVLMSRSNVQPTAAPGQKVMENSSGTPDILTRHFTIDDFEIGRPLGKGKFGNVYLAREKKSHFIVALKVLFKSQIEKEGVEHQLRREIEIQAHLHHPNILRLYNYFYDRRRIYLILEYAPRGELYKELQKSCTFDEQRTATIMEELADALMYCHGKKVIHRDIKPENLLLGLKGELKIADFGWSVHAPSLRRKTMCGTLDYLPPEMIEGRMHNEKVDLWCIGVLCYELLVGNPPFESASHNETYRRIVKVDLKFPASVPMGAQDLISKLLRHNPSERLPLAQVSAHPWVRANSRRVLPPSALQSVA
Serine/threonine-protein kinase VRK2 (Homo sapiens), sequence (Q86Y07 whole entry): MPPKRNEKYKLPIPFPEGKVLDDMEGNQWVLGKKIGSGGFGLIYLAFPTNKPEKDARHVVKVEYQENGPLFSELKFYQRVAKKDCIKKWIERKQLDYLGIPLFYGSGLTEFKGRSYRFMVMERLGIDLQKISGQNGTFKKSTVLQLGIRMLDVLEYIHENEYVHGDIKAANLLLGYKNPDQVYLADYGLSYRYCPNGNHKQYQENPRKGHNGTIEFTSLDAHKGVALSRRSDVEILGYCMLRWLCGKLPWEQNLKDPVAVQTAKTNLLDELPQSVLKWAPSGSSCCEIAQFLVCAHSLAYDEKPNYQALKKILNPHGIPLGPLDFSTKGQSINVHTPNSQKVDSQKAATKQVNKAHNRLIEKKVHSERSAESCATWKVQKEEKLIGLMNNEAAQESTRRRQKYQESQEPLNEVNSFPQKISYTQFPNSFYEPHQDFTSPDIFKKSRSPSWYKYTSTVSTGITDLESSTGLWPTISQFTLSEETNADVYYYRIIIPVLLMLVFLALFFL
Proto-oncogene tyrosine-protein kinase ROS (Homo sapiens), sequence (P08922 whole entry): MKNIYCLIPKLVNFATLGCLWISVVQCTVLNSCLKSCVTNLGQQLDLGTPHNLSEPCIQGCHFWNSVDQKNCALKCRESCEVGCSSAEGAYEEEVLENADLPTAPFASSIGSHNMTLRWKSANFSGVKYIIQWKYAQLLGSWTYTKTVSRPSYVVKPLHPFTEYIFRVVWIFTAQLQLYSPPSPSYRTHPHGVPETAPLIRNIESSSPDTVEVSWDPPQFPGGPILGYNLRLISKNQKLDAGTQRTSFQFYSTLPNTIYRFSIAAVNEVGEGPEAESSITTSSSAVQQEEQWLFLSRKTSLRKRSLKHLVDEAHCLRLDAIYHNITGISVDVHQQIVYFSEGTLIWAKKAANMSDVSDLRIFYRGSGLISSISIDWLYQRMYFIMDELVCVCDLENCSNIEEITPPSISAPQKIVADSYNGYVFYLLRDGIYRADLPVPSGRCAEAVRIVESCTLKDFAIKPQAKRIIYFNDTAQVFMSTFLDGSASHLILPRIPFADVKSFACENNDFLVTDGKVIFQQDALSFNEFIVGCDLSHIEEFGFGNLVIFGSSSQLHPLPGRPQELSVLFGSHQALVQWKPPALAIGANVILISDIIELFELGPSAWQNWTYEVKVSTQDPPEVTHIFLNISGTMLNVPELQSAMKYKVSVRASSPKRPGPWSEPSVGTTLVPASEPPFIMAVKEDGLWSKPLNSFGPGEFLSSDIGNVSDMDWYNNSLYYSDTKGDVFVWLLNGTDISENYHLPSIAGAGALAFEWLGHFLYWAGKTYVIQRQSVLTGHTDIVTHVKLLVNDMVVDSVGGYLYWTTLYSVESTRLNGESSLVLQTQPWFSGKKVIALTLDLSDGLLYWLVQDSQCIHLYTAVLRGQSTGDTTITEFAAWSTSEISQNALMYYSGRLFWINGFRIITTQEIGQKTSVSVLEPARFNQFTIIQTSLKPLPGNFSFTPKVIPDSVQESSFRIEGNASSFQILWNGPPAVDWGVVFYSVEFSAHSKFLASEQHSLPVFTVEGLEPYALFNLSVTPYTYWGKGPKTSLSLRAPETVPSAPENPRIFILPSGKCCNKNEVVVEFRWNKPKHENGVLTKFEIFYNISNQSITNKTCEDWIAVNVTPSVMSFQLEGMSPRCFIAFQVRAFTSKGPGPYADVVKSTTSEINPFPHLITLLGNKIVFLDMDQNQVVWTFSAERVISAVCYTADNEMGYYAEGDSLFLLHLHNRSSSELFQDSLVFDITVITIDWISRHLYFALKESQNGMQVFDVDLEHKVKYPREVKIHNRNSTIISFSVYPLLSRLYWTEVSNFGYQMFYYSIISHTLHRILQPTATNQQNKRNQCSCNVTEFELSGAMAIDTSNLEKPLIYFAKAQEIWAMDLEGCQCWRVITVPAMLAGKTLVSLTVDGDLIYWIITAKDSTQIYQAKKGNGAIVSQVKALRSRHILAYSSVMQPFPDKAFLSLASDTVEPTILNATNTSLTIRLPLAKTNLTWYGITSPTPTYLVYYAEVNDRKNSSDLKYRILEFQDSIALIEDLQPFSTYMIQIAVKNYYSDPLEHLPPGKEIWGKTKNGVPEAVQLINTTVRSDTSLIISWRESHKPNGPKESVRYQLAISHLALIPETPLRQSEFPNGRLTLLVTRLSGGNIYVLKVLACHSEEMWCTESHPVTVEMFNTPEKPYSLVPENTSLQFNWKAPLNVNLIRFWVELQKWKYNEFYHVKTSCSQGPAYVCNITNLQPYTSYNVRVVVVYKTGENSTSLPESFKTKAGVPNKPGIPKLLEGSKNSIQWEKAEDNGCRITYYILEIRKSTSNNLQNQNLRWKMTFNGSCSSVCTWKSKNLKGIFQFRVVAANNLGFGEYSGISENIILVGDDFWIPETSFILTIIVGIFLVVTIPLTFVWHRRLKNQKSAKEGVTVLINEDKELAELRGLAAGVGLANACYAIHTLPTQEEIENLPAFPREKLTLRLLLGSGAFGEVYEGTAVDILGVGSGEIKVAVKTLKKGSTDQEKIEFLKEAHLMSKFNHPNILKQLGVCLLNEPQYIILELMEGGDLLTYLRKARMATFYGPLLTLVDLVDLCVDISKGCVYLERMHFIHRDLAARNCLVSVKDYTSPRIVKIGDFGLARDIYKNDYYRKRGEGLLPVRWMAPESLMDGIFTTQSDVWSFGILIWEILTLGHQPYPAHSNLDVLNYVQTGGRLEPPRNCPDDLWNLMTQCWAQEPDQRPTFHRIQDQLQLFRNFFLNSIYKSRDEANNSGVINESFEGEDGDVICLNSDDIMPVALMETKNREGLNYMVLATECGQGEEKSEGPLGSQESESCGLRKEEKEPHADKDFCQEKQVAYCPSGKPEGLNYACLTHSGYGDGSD
Calcium/calmodulin-dependent protein kinase kinase 2 (Homo sapiens), sequence (Q96RR4 2-588 limits assumed): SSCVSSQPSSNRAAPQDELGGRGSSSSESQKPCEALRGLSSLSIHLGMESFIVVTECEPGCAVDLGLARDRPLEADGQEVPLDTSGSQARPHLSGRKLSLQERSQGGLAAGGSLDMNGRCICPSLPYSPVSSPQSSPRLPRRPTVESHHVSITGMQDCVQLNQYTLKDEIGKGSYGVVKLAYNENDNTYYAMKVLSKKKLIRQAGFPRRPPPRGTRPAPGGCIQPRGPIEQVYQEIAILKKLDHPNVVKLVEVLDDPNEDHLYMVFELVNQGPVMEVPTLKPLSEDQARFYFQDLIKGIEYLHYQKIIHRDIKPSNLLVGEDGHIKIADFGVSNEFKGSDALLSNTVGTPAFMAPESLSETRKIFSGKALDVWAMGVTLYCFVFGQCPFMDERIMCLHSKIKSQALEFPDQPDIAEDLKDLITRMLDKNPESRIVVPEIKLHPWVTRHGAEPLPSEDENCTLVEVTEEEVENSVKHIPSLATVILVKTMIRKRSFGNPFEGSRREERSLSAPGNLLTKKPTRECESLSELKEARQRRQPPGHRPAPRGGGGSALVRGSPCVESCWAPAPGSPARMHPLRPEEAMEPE
Dual specificity testis-specific protein kinase 1 (Homo sapiens), sequence (Q15569 whole entry, looked up): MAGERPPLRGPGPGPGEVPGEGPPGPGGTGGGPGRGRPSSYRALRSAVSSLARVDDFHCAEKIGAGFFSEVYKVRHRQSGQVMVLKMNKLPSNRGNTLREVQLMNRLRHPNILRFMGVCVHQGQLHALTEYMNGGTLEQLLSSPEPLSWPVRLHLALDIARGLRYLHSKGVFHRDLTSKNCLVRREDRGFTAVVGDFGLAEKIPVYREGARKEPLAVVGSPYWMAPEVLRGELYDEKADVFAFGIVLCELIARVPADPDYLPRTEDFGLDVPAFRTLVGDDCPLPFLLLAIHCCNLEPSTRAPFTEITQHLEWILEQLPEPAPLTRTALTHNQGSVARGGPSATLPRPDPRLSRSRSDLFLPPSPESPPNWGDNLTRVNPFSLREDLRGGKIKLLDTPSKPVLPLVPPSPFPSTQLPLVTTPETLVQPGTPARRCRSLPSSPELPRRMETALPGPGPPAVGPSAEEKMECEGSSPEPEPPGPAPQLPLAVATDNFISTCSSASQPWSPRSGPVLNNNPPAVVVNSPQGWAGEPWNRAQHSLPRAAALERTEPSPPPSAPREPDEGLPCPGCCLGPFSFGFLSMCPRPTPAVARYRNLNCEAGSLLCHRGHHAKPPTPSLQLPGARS

| SMILES | inhibition (Aurora kinase B [1]) [%] | inhibition [2] [%] | IC50 (Aurora kinase A) [µM] | IC50 (Aurora kinase B [3]) [µM] | inhibition [4] [%] | inhibition [5] [%] | inhibition [6] [%] | inhibition [7] [%] | inhibition [8] [%] | growth inhibition (GI) (UO-31) | growth inhibition (GI) (A498) | growth inhibition (GI) (CAKI-1) | growth inhibition (GI) (SNB-75) | growth inhibition (GI) (NCI/ADR-RES) | growth inhibition (GI) (HCT-15) | growth inhibition (GI) (NCI-H522) | growth inhibition (GI) (HCT-116) [%] | growth inhibition (GI) (786-0) [%] | growth inhibition (GI) (M14) |
| --- | --- | --- | --- | --- | --- | --- | --- | --- | --- | --- | --- | --- | --- | --- | --- | --- | --- | --- | --- |
| CCOC(=O)c1cnc2ccc(Br)cc2c1Nc1cccc(NS(C)(=O)=O)c1 | 91.6 | 66 | 1.77 | 1.35 |  |  |  |  |  | >=20% | >=20% |  |  |  |  |  |  |  |  |
| CCOC(=O)c1cnc2ccc(Br)cc2c1Nc1cccc(S(=O)(=O)NC)c1 | 21.4 | 10.7 |  |  |  |  |  |  |  | >=20% | >=20% |  |  | >=20% | >=20% | >=20% |  |  |  |
| CCOC(=O)c1cnc2ccc(Br)cc2c1Nc1cccc(S(N)(=O)=O)c1 | 87.4 | 26.9 |  | 1.62 |  |  |  |  |  |  | >=20% | >=20% | >=20% |  |  |  |  |  |  |

More lines, main results first:

| inhibition (Aurora kinase B [1]) [%] | inhibition [2] [%] | IC50 (Aurora kinase A) [µM] | IC50 (Aurora kinase B [3]) [µM] | inhibition [4] [%] | inhibition [5] [%] | inhibition [6] [%] | inhibition [7] [%] | inhibition [8] [%] | SMILES | growth inhibition (GI) (UO-31) | growth inhibition (GI) (A498) | growth inhibition (GI) (CAKI-1) | growth inhibition (GI) (SNB-75) | growth inhibition (GI) (NCI/ADR-RES) | growth inhibition (GI) (HCT-15) | growth inhibition (GI) (NCI-H522) | growth inhibition (GI) (HCT-116) [%] | growth inhibition (GI) (786-0) [%] | growth inhibition (GI) (M14) |
| --- | --- | --- | --- | --- | --- | --- | --- | --- | --- | --- | --- | --- | --- | --- | --- | --- | --- | --- | --- |
| 60.9 | 64.3 | 16.6 | 12.5 |  |  |  |  |  | CCOC(=O)c1cnc2ccccc2c1Nc1cccc(S(N)(=O)=O)c1 | >=20% |  | >=20% | >=20% |  |  |  |  |  |  |
| 71.8 | 61.3 | 7.64 | 6.89 | 31.8 | 33.7 | 4.01 | 20.1 | 3.1 | CCOC(=O)c1cnc2cc(Cl)cc(Cl)c2c1Nc1cccc(S(N)(=O)=O)c1 |  | >=20% |  |  |  |  |  | >50 | >50 | >=20% |
| 18.7 | 6.43 |  |  |  |  |  |  |  | CCOC(=O)c1cnc2ccc(C)cc2c1Nc1cccc(S(=O)(=O)NC)c1 |  |  |  |  |  |  |  |  |  |  |
